Measurements published in patent publication EP0538248B1, “TETRAHYDROISOQUINOLINYLCARBAMATES OF 1,2,3,3A,8,8A-HEXAHYDRO-1,3A,8-TRIMETHYLPYRROLO [2,3-B]INDOLE” (priority 1990, dated 1992).
Like-named read-outs stand apart in the source and are kept apart here.

How the values were obtained:
[1] = Oral bioavailability studies (absorption, brain:plasma partition)
anesthetized dogs = experiment: Cardiovascular effects in anesthetized dogs during combined blockade of alpha and beta adrenergic receptors
Procedure: (§1) Beagles of either sex are anesthetized with sodium thiopental 15 mg/kg + sodium barbital 200 mg/kg + 60 mg of sodium pentobarbital i.v. The trachea is intubated with a cuffed endotracheal tube and connected to a Harvard Respirator Pump set at 20 ml/stroke and 10 strokes/minute. The right femoral artery and vein are exposed and cannulated with polyethylene tubing for measurement of arterial blood pressure and i.v. administration of drugs, respectively. The duration of these experiments is two hours postdrug when drug is administered i.v. and three hours when administered i.d.
The arterial cannula is connected to a Statham P23Gb transducer. Left ventricular cardiac catheterization is accomplished by introducing a Millar microtip pressure transducer into the left carotid artery and advancing it to the left ventricle. The cannula is connected to a Millar TC-100 transducer control unit which is connected to a Beckman voltage/pressure pulse coupler. Ventricular pressure and its first derivative dP/dt are measured simultaneously by wiring the signal output from the left ventricular pressure tracing into a differentiator. […] The proximal lumen of this catheter is in the right atrium when the distal lumen and thermistor have been properly placed in the pulmonary artery. […] Cardiac output is determined by injecting 5 ml of iced 5% dextrose in water into the proximal site (right atrium) and then measuring the temperature change in the pulmonary artery. Using the Stewart-Hamilton equation, the cardiac output can be determined by integrating the area under the thermodilution curve with an Edwards Cardiac Output Computer (model 9520). Heart rate is determined with a Beckman Cardiotach which sums the pressure waves from the pulse pressure curve of the arterial pressure. Lead II EKG is recorded. […] The measurement of these parameters provides information so that the following may be either measured directly or calculated: • 1. […] Central Venous Pressure - CVP measured as right atrial pressure (RAP) mmHg or cmH2O. • 9. […]

anesthetized dog = experiment: Acute cardiovascular hemodynamic evaluation in the anesthetized dog; conditions: for CO: cardiac output; for HR: heart rate; for LVEDP: left ventricular end-diastolic pressure; for MAP: mean arterial blood pressure; for RAP: right atrial pressure
Procedure: (Details of test methods used for determining acute cardiovascular hemodynamic effects are presented following the Conclusion section).
as §1
The arterial cannula is connected to a Statham P23Gb transducer. Left ventricular cardiac catheterization is accomplished by introducing a Millar microtip pressure transducer into the left carotid artery and advancing it to the left ventricle. The cannula is connected to a Millar TC-100 transducer control unit which is connected to a Beckman voltage/pressure pulse coupler. Ventricular pressure and its first derivative dP/dt are measured simultaneously by wiring the signal output from the left ventricular pressure tracing into a differentiator. […] The proximal lumen of this catheter is in the right atrium when the distal lumen and thermistor have been properly placed in the pulmonary artery. The signal outputs from the proximal and distal sites are connected to Statham P23BB transducers to measure right atrial pressure (RAP) and pulmonary artery pressure (PAP). Cardiac output is determined by injecting 5 ml of iced 5% dextrose in water into the proximal site (right atrium) and then measuring the temperature change in the pulmonary artery. Using the Stewart-Hamilton equation, the cardiac output can be determined by integrating the area under the thermodilution curve with an Edwards Cardiac Output Computer (model 9520). Heart rate is determined with a Beckman Cardiotach which sums the pressure waves from the pulse pressure curve of the arterial pressure. Lead II EKG is recorded. […] The measurement of these parameters provides information so that the following may be either measured directly or calculated: • 1. Mean Arterial Blood Pressure - MAP (mmHg) • 2. Heart Rate - HR • 3. Cardiac Output - CO (1/minute) • 4. Total Peripheral Resistance - TPR • 5. Cardiac Index - CI (CO/m^2) • 6. Stroke Volume - SV (ml/beat) • 7. Stroke Work - SW (gm-m/beat) • 8. Central Venous Pressure - CVP measured as right atrial pressure (RAP) mmHg or cmH2O. • 9. Left Ventricular End Diastolic Pressure - LVEDP (mmHg) • 10. Rate of Rise of Ventricular Pressure - dP/dt/Pmax This parameter is a better estimate of the contractile state of the myocardium that dP/ dt alone since the former is relatively independent of the loading conditions of the heart (sec^-1). • 11. Plumonary Artery Pressure - PAP (mmHg) • 12. Electrocardiogram - EKG

[2] = Stability on incubation with human plasma at 37°C; type: in vitro ADME; conditions: after 4 hours
rat brain AChE = biological target: T1, rat brain AChE (Rattus norvegicus, UniProt P37136)
T1 sequence (P37136 32-614): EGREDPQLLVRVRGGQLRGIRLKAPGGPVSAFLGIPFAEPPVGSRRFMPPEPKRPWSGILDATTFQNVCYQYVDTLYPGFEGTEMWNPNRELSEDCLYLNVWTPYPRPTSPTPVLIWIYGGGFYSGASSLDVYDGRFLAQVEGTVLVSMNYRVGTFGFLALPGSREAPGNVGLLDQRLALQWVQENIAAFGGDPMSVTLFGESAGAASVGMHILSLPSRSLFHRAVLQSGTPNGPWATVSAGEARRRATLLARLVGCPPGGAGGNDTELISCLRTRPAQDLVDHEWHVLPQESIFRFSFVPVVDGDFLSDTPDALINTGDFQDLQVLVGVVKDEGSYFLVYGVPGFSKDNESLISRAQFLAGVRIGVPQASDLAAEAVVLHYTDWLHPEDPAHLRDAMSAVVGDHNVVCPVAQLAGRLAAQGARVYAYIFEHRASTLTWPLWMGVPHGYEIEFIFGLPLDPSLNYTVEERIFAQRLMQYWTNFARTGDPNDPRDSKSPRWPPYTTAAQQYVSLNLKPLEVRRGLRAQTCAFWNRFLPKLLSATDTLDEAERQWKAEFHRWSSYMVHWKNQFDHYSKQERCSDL
Procedure: The method described below was used in this invention for assaying cholinesterase activity. This is a modification of the method of Ellman et al., Biochem. Pharmacol. 7, 98 (1961).
• A. Reagents - • 1. 0.05 M Phosphate buffer, pH 7.2 • (a) 6.85 g NaH2PO4•H2O/100 ml distilled H2O • (b) 13.40 g Na2HPO4•7H2O/100 ml distilled H2O • (c) add (a) to (b) until pH reaches 7.2 • (d) Dilute 1:10 • 2. Substrate in buffer • (a) 198 mg acetylthiocholine chloride (10 mM) • (b) q.s to 100 ml with 0.05 M phosphate buffer, pH 7.2 (reagent 1) • 3. DTNB in buffer • (a) 19.8 mg 5,5-dithiobisnitrobenzoic acid (DTNB) (0.5 mM) • (b) q.s. to 100 ml with 0.05 M phosphate buffer, pH 7.2 (reagent 1) • 4. A 2 mM stock solution of the test drug is made up in a suitable solvent and q.s. to volume with 0.5 mM DTNB (reagent 3). Drugs are serially diluted (1:10) such that the final concentration (in cuvette) is 10^-4 M and screened for activity. If active, IC50 values are determined from the inhibitory activity of subsequent concentrations. • B. Tissue Preparation- Male Wistar rats are decapitated, brains rapidly removed, copora striata disected free, weighed and homogenized in 19 volumes (approximately 7 mg protein/ml) of 0.05 M phosphate buffer, pH 7.2 using a Potter-Elvehjem homogenizer. A 25 microliter aliquot of the homogenate is added to 1.0 milliter vehicle or various concentrations of the test drug and preincubated for 10 minutes at 37°C. • C. Assay- Enzyme activity is measured with the Beckman DU-50 spectrophotometer. This method can be used for IC50 determinations and for measuring kinetic constants. Instruments Settings • Kinetics Soft-Pac Module #598273 (10) • Program #6 Kindata: • Source - Vis • Wavelength - 412 nm • Sipper - none • Cuvettes - 2 ml cuvettes using auto 6-sampler • Blank - 1 for each substrate concentration • Interval time - 15 seconds (15 or 30 seconds for kinetics) • Total time - 5 minutes (5 or 10 minutes for kinetics) • Plot - yes • Span - autoscale • Slope - increasing • Results - yes (gives slope) • Factor - 1
Reagents are added to the blank and sample cuvettes as follows: Blank: 0.8 ml Phosphate Buffer/DTNB 0.8 ml Buffer/Substrate Control: 0.8 ml Phosphate Buffer/DTNB/Enzyme 0.8 ml Phosphate Buffer/Substrate Drug: 0.8 ml Phosphate Buffer/DTNB/Drug/ Enzyme 0.8 ml Phosphate Buffer/Substrate Blank values are determined for each run to control for non-enzymatic hydrolysis of substrate and these values are automatically subtracted by the kindata program available on kinetics soft-pac module. This program also calculates the rate of absorbance change for each cuvette.
Substrate concentration is 10 mM diluted 1:2 in assay yielding final concentration of 5 mM.

butyrylcholinesterase = butyrylcholinesterase (Homo sapiens, UniProt P06276); conditions: relative to physostigmine
Chain of butyrylcholinesterase (P06276 29-602): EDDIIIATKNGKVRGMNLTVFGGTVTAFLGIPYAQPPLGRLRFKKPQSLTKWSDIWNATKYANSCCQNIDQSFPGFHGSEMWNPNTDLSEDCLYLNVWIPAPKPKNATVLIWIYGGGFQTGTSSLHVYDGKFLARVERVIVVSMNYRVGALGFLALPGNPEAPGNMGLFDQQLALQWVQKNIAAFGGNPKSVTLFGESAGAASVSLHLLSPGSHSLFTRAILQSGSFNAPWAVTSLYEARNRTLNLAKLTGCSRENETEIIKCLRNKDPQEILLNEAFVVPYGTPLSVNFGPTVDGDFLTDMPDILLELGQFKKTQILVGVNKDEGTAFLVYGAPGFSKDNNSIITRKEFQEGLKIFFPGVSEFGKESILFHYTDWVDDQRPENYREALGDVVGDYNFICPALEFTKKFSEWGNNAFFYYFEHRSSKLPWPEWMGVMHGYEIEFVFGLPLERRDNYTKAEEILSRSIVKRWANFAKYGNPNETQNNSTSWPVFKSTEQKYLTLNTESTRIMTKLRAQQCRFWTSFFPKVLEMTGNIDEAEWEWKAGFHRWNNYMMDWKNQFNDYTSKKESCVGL

[3] = tested on: [^3H]norepinephrine release; experiment: [3H]norepinephrine release in vitro; type: biochemical, Rat; conditions: Compound A at 100 µM
[4] = 0.01 mg/kg/min i.v. during alpha and beta receptor blockade
[5] = 0.01 mg/kg/min. i.v., anesthetized dog
[6] = 0.1 mg/kg/min. i.v., anesthetized dog

Compound	oral absorption / bioavailability [1]	TRP (anesthetized dog; [5])	dP/dT (anesthetized dog; [5])	TRP (anesthetized dog; [6])	dP/dT (anesthetized dog; [6])	CO (anesthetized dog; [6])	HR (anesthetized dog; [5])	HR (anesthetized dog; [6])	MAP (anesthetized dog; [5])	MAP (anesthetized dog; [6])	compound remaining after incubation with human plasma [2]	other results
CNC(=O)Oc1ccc2c(c1)[C@]1(C)CCN(C)[C@@H]1N2C [physostigmine]	so poorly bioavailable by the oral route that pharmacokinetic data was not available	-34%	-32%	-48%	-80%	-79%	-49%	-82%	-49%	-78%	completely destroyed	mortality (dogs) (anesthetized dogs; [4]): 3 out of 3; time to mortality (anesthetized dogs; [4]): 17 to 29 min; mortality (anesthetized dog; 0.01 mg/kg/min i.v., intact alpha and beta adrenergic receptors): no mortality; ECG (anesthetized dog; [6]): A-V block inc. T wave; CO (anesthetized dog; [5]): -23%; LVEDP (anesthetized dog; [5]): +5mmHG; LVEDP (anesthetized dog; [6]): +8mmHG; RAP (anesthetized dog; [5]): +5mmHG; RAP (anesthetized dog; [6]): +8mmHG
(3aS-cis)-1,2,3,3a,8,8a-hexahydro-1,3a,8-trimethylpyrrolo[2,3-b]indol-5-ol,(1,2,3,4-tetrahydroisoquinolinyl)carbamate [Compound A]	rapidly absorbed orally	-18%	+37%	+61%	+38%	+40%	-12%	-13%	-12%	+54%	approximately 70%	accumulation effect on repeated administration (rat brain AChE; 20 mg/kg for four days in rats): no accumulation effect; inhibition of rat brain AChE ex vivo (rat brain AChE; 20 mg/kg, 4 hours after oral administration): significantly inhibitied; inhibition of rat brain AChE ex vivo (rat brain AChE; 20 mg/kg, 6 hours after oral administration): significantly inhibitied; inhibition of rat brain AChE ex vivo (rat brain AChE; 20 mg/kg, 24 hours after oral administration): not statistically significant; inhibition of rat brain AChE ex vivo (rat brain AChE; after oral administration): significant inhibition; cardiac and hemodynamic effects (anesthetized dogs; 0.1 mg/kg/min i.v. during alpha and beta adrenergic blockade): moderate decreases in blood pressure and cardiac output; potency as an inhibitor of butyrylcholinesterase, times less potent than physostigmine (butyrylcholinesterase): approximately 34 times; [^3H]norepinephrine release in vitro [3]: stimulated
